{"source": "paper PMC6407913", "about": "“DREADD Agonist 21 Is an Effective Agonist for Muscarinic-Based DREADDs in Vitro and in Vivo” (ACS Pharmacology & Translational Science, 2018)", "key": {"[1]": {"biological_target": "D1 (Homo sapiens, UniProt P21728)", "sequence (P21728 whole entry)": "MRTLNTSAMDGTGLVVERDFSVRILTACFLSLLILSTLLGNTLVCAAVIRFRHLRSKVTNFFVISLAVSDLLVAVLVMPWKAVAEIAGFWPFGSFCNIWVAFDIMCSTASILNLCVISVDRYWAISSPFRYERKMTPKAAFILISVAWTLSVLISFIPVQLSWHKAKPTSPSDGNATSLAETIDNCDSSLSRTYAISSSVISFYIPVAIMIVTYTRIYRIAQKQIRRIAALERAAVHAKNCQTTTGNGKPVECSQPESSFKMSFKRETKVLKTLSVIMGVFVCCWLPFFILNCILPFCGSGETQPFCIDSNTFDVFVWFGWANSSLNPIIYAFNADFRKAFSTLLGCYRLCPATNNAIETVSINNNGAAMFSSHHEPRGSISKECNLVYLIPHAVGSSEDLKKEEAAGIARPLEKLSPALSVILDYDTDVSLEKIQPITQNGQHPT", "experiment": "cAMP Glo-sensor assay, antagonist mode", "format": "cell-based", "conditions": "human D1, HEK293T cells, vs dopamine", "procedure": "HEK293T cells in 10 cm plates were transfected with 4 μg of Glosensor and 4 μg of DNA encoding the human dopamine D1 receptor. The next day, cells were harvested and plated in polylysine-coated 384-well plates (Greiner) at a density of 20 000 cells/well in DMEM containing 1% dFBS. The next day, media was aspirated from each well and replaced with 20 μL of assay buffer containing 4 mM luciferin. Then, 10 μL of drugs were added 30 min later, and plates were read after 15 min.\nIn the absence of C21 ([B] = 0), this equation becomes the standard four-parameter logistic equation for fitting agonist concentration–response data."}, "[2]": {"biological_target": "T1, hM1Dq (Homo sapiens, UniProt P11229, A196G/Y106C)", "T1 sequence (P11229 1-460 Y106C/A196G)": "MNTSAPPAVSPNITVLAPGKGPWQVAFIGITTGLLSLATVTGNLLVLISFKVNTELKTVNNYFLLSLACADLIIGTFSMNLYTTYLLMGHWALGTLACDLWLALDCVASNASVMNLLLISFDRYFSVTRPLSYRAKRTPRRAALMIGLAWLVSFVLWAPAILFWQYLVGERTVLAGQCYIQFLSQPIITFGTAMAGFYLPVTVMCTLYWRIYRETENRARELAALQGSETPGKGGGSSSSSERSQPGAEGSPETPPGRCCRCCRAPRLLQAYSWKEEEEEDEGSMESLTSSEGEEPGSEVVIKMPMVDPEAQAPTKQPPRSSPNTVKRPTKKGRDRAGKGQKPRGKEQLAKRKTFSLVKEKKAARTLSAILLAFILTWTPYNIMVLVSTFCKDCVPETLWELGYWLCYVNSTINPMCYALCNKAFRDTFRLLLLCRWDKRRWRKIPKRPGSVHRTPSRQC", "experiment": "ERK1/2 phosphorylation (pERK1/2) assay"}, "[3]": {"experiment": "brain protein binding (brain homogenate)", "format": "in vitro ADME, mouse"}, "[4]": {"biological_target": "T1, hM1Dq", "experiment": "whole-cell [3H]NMS competition binding"}}}
{"smiles": "c1ccc2c(c1)N=C(N1CCNCC1)c1ccccc1N2", "note": "[C21, 11-(1-piperazinyl)-5H-dibenzo[b,e][1,4]diazepine]", "values": [{"measurement": "antagonist activity, cAMP assay", "setting": "[1]", "result": "antagonism"}, {"measurement": "EC50", "setting": "[2]", "result": 0.288, "unit": "µM"}, {"measurement": "unbound in brain", "setting": "[3]; brain", "result": 4.9, "unit": "%"}, {"measurement": "fraction unbound", "setting": "[3]; mouse, brain homogenate", "result": 0.05}, {"measurement": "Ki", "setting": "[4]", "result": 0.0631, "unit": "µM"}, {"measurement": "higher binding affinity at hM1Dq than at wildtype hM1", "setting": "[4]; hM1Dq vs hM1", "result": "> 10", "unit": "fold"}]}
